Source: patent EP0634173B1, “24-epi-1-alpha-hydroxyvitamin D2 for treating osteoporosis” (WISCONSIN ALUMNI RESEARCH FOUNDATION, priority 1993, dated 1995)
Read-outs that look alike come from different tables or passages of the source. Marks after values point to notes of the source that are not given here.

How the values were obtained:
[1] = test system: human leukemia cells (HL-60 cells); settings: cited from earlier work
[2] = test system: rats made osteoporotic by ovariectomy; assay: Restoration of bone mass (femur ash) in oophorectomized rats; format: in vivo, rat; settings: for restoration of bone mass: result in words, previously tested, compared with the compound of the present study; for Total Femur Ash (mg ± SEM) / Ash (% ± SEM): oophorectomized rats, 325 pmol/day for 20 days by Alzet osmotic minipump; for Ash (% ± SEM): femur
Excerpt: At 13 weeks, the animals were either sham-operated or oophorectomized. They continued on the same diet for an additional 16 weeks. Ouring the last 20 days, the animals received the indicated dose of either 1α-hydroxyvitamin D2 or 24-epi-1α-hydroxyvitamin D2, in propylene glycol, delivered each day by Alzet osmotic minipump for a period of 20 days. The animals were killed and their femurs were used to determine total bone ash and percent ash. There were 6 animals in each group and the data are expressed as average ± standard error of the mean. Oophorectomy results in a lack of estrogen reminiscent of the menopausal state.

[3] = test system: human leukemia cells (HL-60 cells); settings: 4-day trial period, cited from earlier work
[4] = test system: human leukemia cells (HL-60 cells); settings: 4-day trial period, cited from earlier work; remark: listed apart in the source
vitamin D-deficient rat [5] = settings: cited from earlier work; for Ca Transport S/M Ratio: 20 h prior to sacrifice, vitamin D-free, low calcium diet
vitamin D-deficient rat [6] = settings: cited from earlier work; for Bone Mobilization Serum Ca: 20 h prior to sacrifice, vitamin D-free, low calcium diet; for activity in mobilizing calcium from bone: result in words, animals on a low calcium diet
[7] = test system: human leukemia cells (HL-60 cells); assay: HL-60 cell differentiation, text summary over both NBT-reduction and phagocytosis assays; format: cell-based; settings: HL-60 cell differentiation activity
Description: The assays were conducted as described by Ostrem et al (J. Biol. Chem. 262, 14164-14171, 1987), and by DeLuca et al (U. S. Patent 4,717,721). […] Even at doses as low as 10^-8M, this compound produced approximately 64-67% differentiation in the 4-day trial period in both the NBT-reduction and the phagocytosis assay. […] Thus, 1α-hydroxy-24-epi-vitamin D2 has little or no activity in promoting differentiation of promyelocytes to monocytes.

Structure (SMILES)	restoration of bone mass [2]	% Differentiation Phagocytosis ([3]; 1 x 10^-7 M) [%]	% Differentiation Phagocytosis ([3]; 1 x 10^-8 M) [%]	% Differentiation NBT Reduction ([4]; 1 x 10^-7 M) [%]	% Differentiation NBT Reduction ([4]; 1 x 10^-8 M) [%]	Ca Transport S/M Ratio (vitamin D-deficient rat [5]; 325 pmol)	Total Femur Ash (mg ± SEM) [2] [mg]	Ash (% ± SEM) [2] [%]	Bone Mobilization Serum Ca (vitamin D-deficient rat [6]; 325 pmol)	activity in mobilizing calcium from bone (vitamin D-deficient rat [6])	differentiation ([1]; 1-2 x 10^-8M)	differentiation ([1]; 10^-7M)	% Differentiation Phagocytosis ([3]; 2 x 10^-8 M) [%]	% Differentiation Phagocytosis ([3]; 5 x 10^-8 M) [%]	% Differentiation NBT Reduction ([4]; 2 x 10^-8 M) [%]	% Differentiation NBT Reduction ([4]; 5 x 10^-8 M) [%]	other results
C=C1/C(=C\C=C2/CCC[C@]3(C)[C@@H]([C@H](C)CCCC(C)(C)O)CC[C@@H]23)C[C@@H](O)C[C@@H]1O [1α,25-Dihydroxy-vitamin D3, 1α,25-dihydroxyvitamin D3]	restored some bone mass	89 ± 3	67 ± 3	87 ± 2	64 ± 2												differentiation ([1]; 10^-8M, 4-day trial period, both NBT-reduction and phagocytosis assay): 64-67%
C=C1/C(=C\C=C2/CCC[C@]3(C)[C@@H]([C@H](C)/C=C/[C@H](C)C(C)C)CC[C@@H]23)C[C@@H](O)C[C@@H]1O [1α-Hydroxy-vitamin D2, 1α-hydroxyvitamin D2]						5.4 ± 0.37^a	377	58.6 ± 0.55	5.3 ± 0.15^a mg %	strongly active							Total Femur Ash (mg ± SEM) ([2]; listed as 1α-OH-D2): 377 ± 15.2^c mg
C=C1/C(=C\C=C2/CCC[C@]3(C)[C@@H]([C@H](C)CCCC(C)C)CC[C@@H]23)C[C@@H](O)C[C@@H]1O [1α-hydroxyvitamin D3]	restored some bone mass																
C=C1/C(=C\C=C2/CCC[C@]3(C)[C@@H]([C@H](C)/C=C/[C@@H](C)C(C)C)CC[C@@H]23)C[C@@H](O)C[C@@H]1O [1α-Hydroxy-24-epi-vitamin D2, 24-epi-1α-hydroxyvitamin D2]		16 ± 2	4 ± 2	22 ± 2	4 ± 2	4.3 ± 0.42^a	400	60.5 ± 0.5	3.9 ± 0.39^b mg %	no activity	does not elicit a significant differentiation response	16-20%	6 ± 3	9 ± 1	6 ± 2	14 ± 2	Ca Transport S/M Ratio (vitamin D-deficient rat [5]; 650 pmol): 4.4 ± 0.70^a; activity in stimulating intestinal calcium transport (vitamin D-deficient rat [5]; result in words, data of Table 1): high activity; Total Femur Ash (mg ± SEM) ([2]; listed as 24-epi-1α-OH-D2): 400 ± 16.4^d mg; Bone Mobilization Serum Ca (vitamin D-deficient rat [6]; 650 pmol): 4.1 ± 0.23^b mg %
C=C1/C(=C\C=C2/CCC[C@]3(C)[C@@H]([C@H](C)/C=C/[C@@H](C)C(C)(C)O)CC[C@@H]23)C[C@@H](O)C[C@@H]1O [1α,25-Dihydroxy-24-epi-vitamin D2, 1α,25-dihydroxy-24-epi-vitamin D2]		81 ± 3	40 ± 3	80 ± 3	39 ± 3						40-50%	80%	49 ± 2	62 ± 3	48 ± 3	64 ± 3	differentiation ([1]; 5 x 10^-8M): > 60%; times less active than the 1α,25-dihydroxyvitamin D3 standard [7]: about 5
